Results: patent US11040947B2, “Substituted quinazolines as matrix metalloproteinase-9 hemopexin domain inhibitors” (The Research Foundation for The State University of New York, priority 2017, dated 2021)

What was measured:
[1] = system: proMMP9-mediated migration of COS-1 cells; assay: two-dimensional collagen dot migration assay, COS-1 cells overexpressing proMMP-9; format: cell-based; conditions: 50 μM
Description: This assay was initially used to test the efficacy of analogs at a single concentration, 50 μM.
Cells were mixed with type I collagen solution with or without compound, dotted onto a 96-well plate, and allowed to migrate for 18 hours. They were then fixed, stained and scored for extent of migration.

[2] = system: proMMP-14-mediated migration of COS-1 cells; assay: two-dimensional dot migration assay, COS-1 cells stably expressing proMMP-14; format: cell-based
Description: To test whether compound 3c is specific for inhibiting only proMMP9-mediated migration, a two-dimensional dot migration assay was performed using COS-1 cells engineered to stably express vector control pQCXIP, proMMP-2, proMMP-9, or proMMP-14 cDNA vectors. An immunoblot was performed to confirm protein expression and proper localization of each MMP (MMP-2/-9 are secreted while MMP-14 is membrane bound).

[3] = target: T1, MMP-9 interaction with α4/β1 integrin (Homo sapiens, UniProt P14780); assay: co-immunoprecipitation of endogenous integrin with MMP-9 in HT1080 cells; format: cell-based; conditions: 50 μM
T1 construct: expressed in transfected cells; host or cells: HT1080 cells (MMP-9 transfected; integrin endogenous)
Description: (§1) HT1080 cells transiently co-transfected with tagged MMP-9 cDNAs were prepared as described above.

[4] = system: HT1080 fibrosarcoma cells; assay: chronic toxicity in HT1080 cells; format: cell-based, Human; conditions: 100 μM, HT1080 cells re-treated every three days for nine days
Description: Compound 3c was evaluated for acute cytotoxicity. COS-1 cells stably expressing either vector control or proMMP-9 cDNA were treated with 50 μM 3c for 24 hours. As negative and positive controls, cells were treated with DMSO alone or 100 nM staurosporine (STS), an apoptosis inducer, respectively. […] A non-statistically significant 8% decrease in cell growth occurred after treatment with 50 μM of compound 3c. These experiments were repeated in endogenous MMP-9 expressing HT1080 fibrosarcoma cells, which were analyzed for chronic toxicity (cells were re-treated every three days for a total of nine days).

[5] = system: HT1080 cells stably expressing GFP; assay: chorioallantoic membrane (CAM) assay, invasion; format: in vivo, chicken embryo; conditions: 100 μM stock solution (final estimated 0.5 μM), vs DMSO or 1f
Description: HT1080 cells stably expressing GFP were mixed with a type I collagen solution (3 mg/mL) and seeded atop the CAM to ensure the cells localized to a specific area. […] The invasion of cancer cells through the epithelium and basement membrane of the upper CAM into connecting tissue was examined by hematoxylin and eosin staining in addition to fluorescence microscopy for GFP^+ cells.

[6] = system: Src^Tyr418, FAK^Tyr576/577, PAX^Tyr118 phosphorylation; assay: phosphorylation of Src and downstream targets in HT1080 cells; format: cell-based, Human; conditions: 50 μM
Description: as §1

[7] = system: EGFR^Tyr1068, AKT^Ser473, Erk1/2^Thr202/Tyr204 phosphorylation; assay: phosphorylation of EGFR and downstream targets in HT1080 cells; format: cell-based, Human; conditions: 50 μM overnight

T1 sequence (P14780 94-707): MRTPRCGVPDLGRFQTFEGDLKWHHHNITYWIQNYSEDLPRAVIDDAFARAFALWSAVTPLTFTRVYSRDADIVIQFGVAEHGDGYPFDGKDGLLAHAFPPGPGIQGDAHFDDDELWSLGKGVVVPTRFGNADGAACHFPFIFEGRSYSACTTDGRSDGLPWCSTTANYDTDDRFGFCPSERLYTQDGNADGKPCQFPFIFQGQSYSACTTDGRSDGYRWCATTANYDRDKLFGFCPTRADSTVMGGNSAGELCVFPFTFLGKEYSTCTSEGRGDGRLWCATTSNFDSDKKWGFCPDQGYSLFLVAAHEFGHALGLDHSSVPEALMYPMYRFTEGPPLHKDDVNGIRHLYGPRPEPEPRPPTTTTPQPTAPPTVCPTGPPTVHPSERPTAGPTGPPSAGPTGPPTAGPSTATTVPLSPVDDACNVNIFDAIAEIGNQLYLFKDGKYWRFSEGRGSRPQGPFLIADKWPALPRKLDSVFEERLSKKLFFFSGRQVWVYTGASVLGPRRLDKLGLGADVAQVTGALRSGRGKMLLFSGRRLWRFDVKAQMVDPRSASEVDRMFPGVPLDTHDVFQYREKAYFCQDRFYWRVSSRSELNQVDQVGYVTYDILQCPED

Q: Which results are given for `O=C(CCCSc1nc2c(c(=O)[nH]1)CCCC2)Nc1ccc(F)cc1` [Compound 3c, N-(4-Fluorophenyl)-4-(4-oxo-3,4,5,6,7,8-hexahydroquinazolin-2-ylthio)butanamide]?
A: effectiveness among the tested compounds in migration assay [1]: most effective; inhibition at 50 µM ([1]; Chlorocebus aethiops, 18 hours): 90 ± 2%; inhibition of proMMP-14-mediated migration [2]: only inhibited proMMP9-mediated migration; endogenous α4β3 integrin co-immunoprecipitation [3]: reduced endogenous α4β3 integrin co-immunoprecipitation; cell death, chronic toxicity [4]: No cell death was observed; invasion of CAM tissue [5]: reduced invasion of CAM tissue; Src^Tyr418 phosphorylation and phosphorylation of FAK^Tyr576/577 and PAX^Tyr118 [6]: reduced Src^Tyr418 phosphorylation; phosphorylation of EGFR^Tyr1068 and downstream targets AKT^Ser473 and Erk1/2^Thr202/Tyr204 [7]: reduced phosphorylation
